Measurements reported in PMC10233710 (ChemMedChem, 2023).

How the values were obtained:
MCF-7 cells [1] = test: Drug combination with TPT; assay type: cell-based, human; details: co-incubated with TPT for 96 h, 43 at 1 μM
MCF-7 cells [2] = test: MTT cytotoxicity assay, MCF-7; assay type: cell-based, human; details: Homo sapiens, MCF7, 72 h, read-out: GI50 ± SD (μM) MCF-7
[3] = system: MCF-7/TDP1 cells (overexpressing TDP1); test: Drug combination with TPT; assay type: cell-based, human; details: co-incubated with TPT for 96 h
recombinant human TDP1 = recombinant human TDP1 (Homo sapiens, UniProt Q9NUW8); test: TDP1 gel-based inhibition assay; assay type: biochemical
recombinant TOP1 = target: T1, recombinant TOP1 (Homo sapiens, UniProt P11387); test: TOP1-mediated DNA cleavage assay; assay type: biochemical; details: semiquantitative relative to CPT at 1 μM
T1 sequence (P11387 1-765): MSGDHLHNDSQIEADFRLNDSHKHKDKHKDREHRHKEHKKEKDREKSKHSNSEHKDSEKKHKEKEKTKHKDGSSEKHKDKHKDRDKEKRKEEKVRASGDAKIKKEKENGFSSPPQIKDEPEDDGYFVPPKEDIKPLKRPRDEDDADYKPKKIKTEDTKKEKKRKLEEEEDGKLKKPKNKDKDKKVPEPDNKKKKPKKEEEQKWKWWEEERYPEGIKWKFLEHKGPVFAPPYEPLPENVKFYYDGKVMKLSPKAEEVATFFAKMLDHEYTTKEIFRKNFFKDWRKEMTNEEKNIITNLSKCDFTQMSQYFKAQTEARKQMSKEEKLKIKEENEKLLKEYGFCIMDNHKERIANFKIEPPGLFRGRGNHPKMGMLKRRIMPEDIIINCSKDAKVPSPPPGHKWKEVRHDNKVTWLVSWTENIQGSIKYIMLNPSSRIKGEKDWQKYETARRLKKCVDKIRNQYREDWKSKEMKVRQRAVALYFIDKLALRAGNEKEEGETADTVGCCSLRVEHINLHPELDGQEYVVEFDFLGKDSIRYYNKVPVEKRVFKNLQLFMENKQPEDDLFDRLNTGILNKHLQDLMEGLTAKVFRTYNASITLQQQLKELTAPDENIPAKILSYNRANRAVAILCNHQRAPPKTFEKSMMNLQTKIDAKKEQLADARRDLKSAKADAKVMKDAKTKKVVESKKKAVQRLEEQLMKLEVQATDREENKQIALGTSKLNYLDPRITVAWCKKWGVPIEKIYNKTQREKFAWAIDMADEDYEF

HCT-116 cells = test: MTT cytotoxicity assay, HCT-116; assay type: cell-based, human; details: Homo sapiens, HCT-116, 72 h, read-out: GI50 ± SD (μM) HCT-116
[4] = target: T2, cellular TOP1ccs in MCF-7 cells (Homo sapiens, UniProt P11387); test: ICE assay for cellular TOP1cc; details: 1 h, 38 at 25, 50, 100 μM, TPT at 25 and 50 μM
T2 sequence (P11387 2-765 limits assumed): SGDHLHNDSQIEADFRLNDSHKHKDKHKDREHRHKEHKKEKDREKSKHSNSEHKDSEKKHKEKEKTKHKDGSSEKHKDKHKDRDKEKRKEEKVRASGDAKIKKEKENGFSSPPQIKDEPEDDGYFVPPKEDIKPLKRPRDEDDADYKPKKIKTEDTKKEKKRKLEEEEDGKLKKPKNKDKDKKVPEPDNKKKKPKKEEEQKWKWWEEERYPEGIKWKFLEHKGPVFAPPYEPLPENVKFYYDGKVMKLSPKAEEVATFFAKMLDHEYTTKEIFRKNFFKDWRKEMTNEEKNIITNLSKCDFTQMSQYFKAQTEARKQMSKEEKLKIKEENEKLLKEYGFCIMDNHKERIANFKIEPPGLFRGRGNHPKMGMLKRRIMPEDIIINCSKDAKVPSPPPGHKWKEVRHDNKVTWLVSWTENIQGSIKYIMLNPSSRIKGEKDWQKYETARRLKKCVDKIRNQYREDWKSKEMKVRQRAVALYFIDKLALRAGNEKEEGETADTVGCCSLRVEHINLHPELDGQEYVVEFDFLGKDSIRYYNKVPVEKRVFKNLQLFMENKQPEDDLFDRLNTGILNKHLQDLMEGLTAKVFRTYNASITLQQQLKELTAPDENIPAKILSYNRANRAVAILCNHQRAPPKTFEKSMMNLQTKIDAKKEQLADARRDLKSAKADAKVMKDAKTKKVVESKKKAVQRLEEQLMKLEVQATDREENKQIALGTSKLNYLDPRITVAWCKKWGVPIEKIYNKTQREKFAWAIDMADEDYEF

MCF-7 cells [5] = test: Flow cytometry apoptosis assay; assay type: cell-based, human; details: 4 µM, 24 h
[6] = target: cellular TDP1ccs in MCF-7 cells (Homo sapiens, UniProt Q9NUW8); details: 1 h
[7] = system: γH2AX foci in MCF-7 cells; test: γH2AX immunofluorescence assay; assay type: cell-based, human; details: 5 h
[8] = TOP1 cleavage inhibitory activity, Table 2

recombinant human TDP1, sequence (Q9NUW8 whole entry): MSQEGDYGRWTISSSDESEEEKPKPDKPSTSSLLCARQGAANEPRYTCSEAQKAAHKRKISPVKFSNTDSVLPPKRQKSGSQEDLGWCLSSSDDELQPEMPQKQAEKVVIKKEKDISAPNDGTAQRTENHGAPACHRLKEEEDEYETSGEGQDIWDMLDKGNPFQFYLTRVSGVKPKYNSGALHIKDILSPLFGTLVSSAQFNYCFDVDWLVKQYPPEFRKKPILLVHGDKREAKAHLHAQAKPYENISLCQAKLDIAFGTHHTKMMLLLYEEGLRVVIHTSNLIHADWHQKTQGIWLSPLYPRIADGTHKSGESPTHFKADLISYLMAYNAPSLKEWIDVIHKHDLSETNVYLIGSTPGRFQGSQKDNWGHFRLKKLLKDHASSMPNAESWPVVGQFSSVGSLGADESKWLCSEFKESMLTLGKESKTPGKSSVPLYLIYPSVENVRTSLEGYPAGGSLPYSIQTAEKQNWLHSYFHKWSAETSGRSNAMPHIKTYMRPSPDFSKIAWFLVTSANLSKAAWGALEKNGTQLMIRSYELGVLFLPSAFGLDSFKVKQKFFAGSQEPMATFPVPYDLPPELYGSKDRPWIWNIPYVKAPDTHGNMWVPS
cellular TDP1ccs in MCF-7 cells, sequence (Q9NUW8 whole entry): as above

SMILES: COc1cc2c(=O)n(C)c3c4cc5c(cc4cc(OCCCN(C)C)c3c2cc1OC)OCO5 [Compound 35, 5-(3-(Dimethylamino)propoxy)-2,3-dimethoxy-12-methyl-[1,3]dioxolo[4’,5’:4,5]benzo[1,2-c]phenanthridin-13(12H)-one]
- combination index (CI) with TPT (MCF-7 cells [1]): 0.02–0.69
- GI50 (MCF-7 cells [2]): 1.2 ± 0.1 µM
- combination index (CI) with TPT [3]: 0.003–0.51
- IC50 (recombinant human TDP1): 18 ± 6.9 µM
- TOP1 Inhibition (recombinant TOP1; [8]): 0
- TOP1 Inhibition (recombinant TOP1): no TOP1 inhibition
- GI50 (HCT-116 cells): 0.55 ± 0.17 µM

SMILES: COc1cc2c(=O)n(C)c3c4cc5c(cc4cc(OCCN4CCCC4)c3c2cc1OC)OCO5 [Compound 38, 2,3-Dimethoxy-12-methyl-5-(2-(pyrrolidin-1-yl)ethoxy)-[1,3]dioxolo[4’,5’:4,5]benzo[1,2-c]phenanthridin-13(12H)-one]
- GI50 (MCF-7 cells [2]): 6.4 ± 1 µM
- IC50 (recombinant human TDP1): 37 to 111 µM
- TOP1 Inhibition (recombinant TOP1; [8]): +++ (+++, between 75% and 95% activity)
- cellular TOP1cc trapping [4]: trapped cellular TOP1ccs in MCF-7 cells in a dose-dependent manner
- GI50 (HCT-116 cells): 0.25 ± 0.02 µM

SMILES: COc1cc2c(=O)n(C)c3c4cc5c(cc4cc(OCCCN4CCOCC4)c3c2cc1OC)OCO5 [Compound 41, 2,3-Dimethoxy-12-methyl-5-(3-morpholinopropoxy)-[1,3]dioxolo[4’,5’:4,5]benzo[1,2-c]phenanthridin-13(12H)-one]
- GI50 (MCF-7 cells [2]): 7.9 ± 1 µM
- IC50 (recombinant human TDP1): > 111 µM
- TOP1 Inhibition (recombinant TOP1; [8]): + (+, between 20% and 50% activity)
- GI50 (HCT-116 cells): 3.3 ± 0.73 µM

SMILES: COc1cc2c(=O)n(C)c3c4cc5c(cc4cc(OCCCO)c3c2cc1OC)OCO5 [Compound 42, 5-(3-Hydroxypropoxy)-2,3-dimethoxy-12-methyl-[1,3]dioxolo[4’,5’:4,5]benzo[1,2-c]phenanthridin-13(12H)-one]
- GI50 (MCF-7 cells [2]): 51 ± 1.6 µM
- IC50 (recombinant human TDP1): > 111 µM
- TOP1 Inhibition (recombinant TOP1; [8]): + (+, between 20% and 50% activity)
- GI50 (HCT-116 cells): 38 ± 2.31 µM

SMILES: COc1cc2c(=O)n(C)c3c4cc5c(cc4cc(OCCCNCCO)c3c2cc1OC)OCO5 [Compound 43, 5-(3-((2-Hydroxyethyl)amino)propoxy)-2,3-dimethoxy-12-methyl-[1,3]dioxolo[4’,5’:4,5]benzo [1,2-c]phenanthridin-13(12H)-one]
- combination index (CI) with TPT (MCF-7 cells [1]): 0.18–0.77
- late apoptosis, % cells (MCF-7 cells [5]): ~28.58%
- quantity of cellular TDP1cc ([6]; co-treated with TPT (10 μM) and 43 (10 and 100 μM)): significantly enhanced
- cellular TDP1ccs ([6]; compound alone at 100 μM): significantly enhanced
- GI50 (MCF-7 cells [2]): 2.2 ± 1.2 µM
- combination index (CI) with TPT [3]: 0.003–0.51
- IC50 (recombinant human TDP1): 10 ± 3.8 µM
- TOP1 Inhibition (recombinant TOP1; [8]): + (+, between 20% and 50% activity)
- γH2AX foci, fold compared with TPT treated alone ([7]; co-treatment with TPT and 43 at 1 μM): about 1.9 fold
- γH2AX foci, fold compared with TPT treated alone ([7]; co-treatment with TPT and 43 at 2 μM): ~2.4 fold
- DNA damage (γH2AX foci) relative to that of TPT ([7]; compound alone at 1 μM): about one fifth
- GI50 (HCT-116 cells): 0.29 ± 0.19 µM

SMILES: COc1cc2c(=O)n(C)c3c4cc5c(cc4cc(OCCCn4ccnc4)c3c2cc1OC)OCO5 [Compound 44, 5-(3-(1H-imidazol-1-yl)propoxy)-2,3-dimethoxy-12-methyl-[1,3]dioxolo[4’,5’:4,5]benzo[1,2-c]phenanthridin-13(12H)-one]
- GI50 (MCF-7 cells [2]): 7 ± 0.55 µM
- IC50 (recombinant human TDP1): > 111 µM
- TOP1 Inhibition (recombinant TOP1; [8]): 0/+ (0/+, less than 20%)
- GI50 (HCT-116 cells): 10 ± 1.2 µM

SMILES: COc1cc2c(=O)n(C)c3c4cc5c(cc4cc(OCCCN4CCN(c6cccc(C(F)(F)F)c6)CC4)c3c2cc1OC)OCO5 [Compound 45, 2,3-Dimethoxy-12-methyl-5-(3-(4-(3-(trifluoromethyl)phenyl)piperazin-1-yl)propoxy)-[1,3]dioxolo[4’,5’:4,5]benzo[1,2-c]phenanthridin-13(12H)-one]
- GI50 (MCF-7 cells [2]): 85 ± 3.8 µM
- IC50 (recombinant human TDP1): > 111 µM
- TOP1 Inhibition (recombinant TOP1; [8]): 0
- GI50 (HCT-116 cells): > 100 µM

SMILES: CC[C@@]1(O)C(=O)OCc2c1cc1n(c2=O)Cc2cc3c(CN(C)C)c(O)ccc3nc2-1 [TPT, Topotecan, reference compound]
- γH2AX foci formation ([7]; alone): could obviously induce γH2AX foci formation
- cellular TOP1cc trapping [4]: trapped cellular TOP1ccs
